In the SangsterLogP compilation:

Key:
[1] = method code SF-NMR, from DOI: 10.1002/jps.2600751016, PMID: 3795031
[2] = method code SF-AS, from Jha, T.; Debnath, A.; Mazumdar, A.; Sengupta, C.; De, A. (1986). Hansch analysis of antineoplastic agents, 5-N-substituted-2-p-substituted benzenesulfonyl-L-glutamines. Ind. J. Chem., Sect. B, …
[3] = not given; remark: listed apart in the source
[4] = method code SF-AS, from DOI: 10.1007/s001289900158, PMID: 8661463
[5] = method code SF-HPLC, from PMID: 2780588
[6] = method code SF-AS, from PMID: 10944786; details: pH 7.0
[7] = not given; remark: listed apart in the source
[8] = not given; remark: listed apart in the source
[9] = not given; remark: listed apart in the source
[10] = not given; remark: listed apart in the source
[11] = method code SF-AS, from DOI: 10.1016/j.ejmech.2011.02.056, PMID: 21420207
[12] = method code SF, from Yoshimoto, M. (1982). Quantitative structure-activity relationships and structure patterns of drugs. SankyoÌ„ KenkyuÌ„jo nenpoÌ„ (Annual report of Sankyo Research Laboratories), 34, 1-38.
[13] = method code SF-AS, from DOI: 10.1002/chin.199416148, PMID: 8117185
[14] = not given; remark: listed apart in the source
[15] = method code SF-AS, from DOI: 10.1021/jm00253a014, PMID: 4151967; details: pH 7.4
[16] = method code SF-HPLC, from DOI: 10.1016/0045-6535(86)90532-1; details: pH 6.5
[17] = method code SF-HPLC, from PMID: 9554875; details: pH 6.8

`OCCCCCC(F)(F)F` gave a logP [1] of 1.64.

In the case of `CCCCCCCCCCCCCCCC(=O)OCC(COC(=O)C(C)c1ccc2cc(OC)ccc2c1)OC(=O)CCCCCCCCCCCCCCC` (stereo not given), the logP is reported as 6.28.

For `CCCCCCNC(=O)CCC(NS(=O)(=O)c1ccc(C)cc1)C(=O)O` (stereo not given), the logP [2] was 0.92.

For `CCSc1ccc2c(c1)N(CCCN1CCN(C)CC1)c1ccccc1S2`, the logP [3] was 4.82.

For `Clc1ccnc(Cl)n1`, the logP [4] was 1.16.

`OCCCCC(F)(F)F` gave a logP [1] of 1.15.

For `CCCCCCCCCCCNC(=O)Cc1ccc(O)c(OC)c1`, the logP [5] was 3.74.

In the case of `CCCOc1ccc(NC(=O)OCN2CCCCC2)cc1`, the logD [6] is reported as 2.42.

With `OCCCCCCO` the logP [7] was -0.02.

With `OCCN1CCN(CCCN2c3ccccc3Sc3ccc(Cl)cc32)CC1` the logP [3] was 4.25.

With `CCCCOc1ccccc1NC(=O)OCN1CCCCC1` the logD [6] was 2.39.

For `Cc1ccc2c(ccc3ccccc32)c1`, the logP [8] was 5.24.

In the case of `CCCCCCCCC(=O)NCc1ccc(O)c(OC)c1`, the logP [5] is reported as 2.96.

Work on `CNC(=O)O/N=C/C(C)(C)SC` yielded a logP [9] of 1.19.

In the case of `COc1ccc(NC(=O)c2cc(-c3sc(NC(=O)C(C)(C)C)nc3C)n(-c3ccc(Br)cc3)n2)cc1`, the logP [10] is reported as 5.17.

In the case of `CCCC(=O)OCC(COC(=O)C(C)c1ccc2cc(OC)ccc2c1)OC(=O)CCC` (stereo not given), the logP is reported as 4.84.

With `CCCCCCCCCCCCCCCCCC(=O)N[C@H]1C[C@H](O[C@H]2C[C@](O)(C(=O)CO)Cc3c(O)c4c(c(O)c32)C(=O)c2c(OC)cccc2C4=O)O[C@@H](C)[C@H]1O` the logP [11] was 2.17.

In the case of `CCCNC(=O)CCC(NS(=O)(=O)c1ccccc1)C(=O)O` (stereo not given), the logP [2] is reported as -0.08.

For `COc1ccc(NC(=O)c2cc(-c3sc(NC(=O)C(C)(C)C)nc3C)nn2Cc2ccc(Cl)cc2OC)cc1`, the logP [10] was 5.33.

`COC1(NC(=O)CSc2[nH]cnc3ncnc2-3)C(=O)N2C(C(=O)O)=C(COC(N)=O)CSC21` (stereo not given) gave a logP [12] of -1.99.

Work on `CCCCCCCCCC(=O)N[C@H]1C[C@H](O[C@H]2C[C@](O)(C(=O)CO)Cc3c(O)c4c(c(O)c32)C(=O)c2c(OC)cccc2C4=O)O[C@@H](C)[C@H]1O` yielded a logP [11] of 1.92.

Work on `CCCCCC(=O)OCC(CCOC(=O)c1ccc2cc(OC)ccc2c1)OC(=O)CCCCC` (stereo not given) yielded a logP of 5.68.

With `CCN(CC)c1nc(NN)nc(NN)n1` the logP [4] was 1.22.

For `CC(C(=O)CCN(C)C)N1C(=O)C2CC=CCC2C1=O` (stereo not given), the logP [13] was 0.77.

With `CCCCSCC(=O)NC1(OC)C(=O)N2C(C(=O)O)=C(COC(N)=O)CSC21` (stereo not given) the logP [12] was -1.57.

With `Cc1cc(Cl)c(Cl)cc1Cc1c(Cl)cccc1Cl` the logP [14] was 6.03.

In the case of `CC(C(=O)CCN1CCCCC1)N1C(=O)C2CC=CCC2C1=O` (stereo not given), the logP [13] is reported as 1.55.

`Cc1ccc(S(=O)(=O)NC(CCC(=O)NC2CCCCC2)C(=O)O)cc1` (stereo not given) gave a logP [2] of 0.32.

In the case of `c1ccc2cc3cc4c(ccc5ccccc54)cc3cc2c1`, the logP [8] is reported as 6.81.

In the case of `NNc1nc(NN)nc(N2CCOCC2)n1`, the logP [4] is reported as 0.62.

`CCCCCCCCCCCCCCCCCCCC(=O)N[C@H]1C[C@H](O[C@H]2C[C@](O)(C(=O)CO)Cc3c(O)c4c(c(O)c32)C(=O)c2c(OC)cccc2C4=O)O[C@@H](C)[C@H]1O` gave a logP [11] of 2.31.

`CCn1c(C)c(COC(N)=O)c2c1C(=O)C(C)=C(OC)C2=O` gave a logD [15] of 1.81.

For `COc1ccc2c(c1)N(CC(C)CN(C)C)c1ccccc1S2` (stereo not given), the logP [3] was 4.4.

`CN(C)C(=S)N(C)C` showed a logD [16] of 0.49.

Molecule `CCCCCCCCC(=O)NCc1cccc(OC)c1` has a logP [5] of 3.31.

Work on `COC1=C(C)C(=O)c2c(c(COC(N)=O)c3n2CCC3)C1=O` yielded a logD [15] of 1.71.

For `CCCSCC(=O)NC1(OC)C(=O)N2C(C(=O)O)=C(COC(N)=O)CSC21` (stereo not given), the logP [12] was -1.76.

With `CCCOc1ccccc1NC(=O)OCN1CCCCC1` the logD [6] was 2.33.

In the case of `CCn1c(C)c(COC(=O)NCCO)c2c1C(=O)C(C)=C(OC)C2=O`, the logD [15] is reported as 1.64.

`O=C(CCN1CCCCC1)CN1C(=O)c2ccccc2C1=O` gave a logP [13] of 0.86.

For `COc1ccc2c(c1)COP(=O)(OCC1C=CC(n3cc(C)c(=O)[nH]c3=O)O1)O2` (stereo not given), the logD [17] was 0.36.

`c1ccc2cc3cc4ccccc4cc3cc2c1` showed a logP [8] of 5.76.

`COc1cc(CNC(=O)CCCC/C=C/C(C)C)ccc1O` showed a logP [5] of 3.04.

Molecule `CCc1ccc2cc3ccccc3cc2c1` has a logP [8] of 5.85.

For `CCNC(=O)CCC(NS(=O)(=O)c1ccccc1)C(=O)O` (stereo not given), the logP [2] was 0.38.

In the case of `CCCCCCCC/C=C\CCCCCCCC(=O)OCC(COC(=O)C(C)c1ccc2cc(OC)ccc2c1)OC(=O)CCCCCCC/C=C\CCCCCCCC` (stereo not given), the logP is reported as 6.39.

Molecule `Cc1cc(Cc2ccc(Cl)cc2Cl)c(Cl)cc1Cl` has a logP [14] of 6.77.

Work on `CCNC(N)=S` yielded a logD [16] of -0.21.

In the case of `CCCOc1cccc(NC(=O)OCN2CCCCC2)c1`, the logD [6] is reported as 2.6.

Molecule `Cc1cn(C2C=CC(COP3(=O)OCc4ccccc4O3)O2)c(=O)[nH]c1=O` (stereo not given) has a logD [17] of 0.28.

For `CCCCC(N)=O`, the logP [7] was 0.37.

With `Cc1c(Cl)ccc(Cc2c(Cl)cccc2Cl)c1Cl` the logP [14] was 6.58.

Molecule `COC1=C(C)C(=O)c2c(c(COC(N)=O)c3n2CCC3OC(C)=O)C1=O` (stereo not given) has a logD [15] of 1.54.

In the case of `CCCCCCCCCCCC(=O)OCC(COC(=O)C(C)c1ccc2cc(OC)ccc2c1)OC(=O)CCCCCCCCCCC` (stereo not given), the logP is reported as 6.08.

`COc1cc(Cl)ccc1Cn1nc(-c2sc(NC(=O)C(C)(C)C)nc2C)cc1C(=O)N1CCOCC1` showed a logP [10] of 4.1.

Work on `CCCCCNC(=O)Cc1ccc(O)c(OC)c1` yielded a logP [5] of 1.67.

`Cc1cc(Cc2c(Cl)cccc2Cl)c(Cl)cc1Cl` gave a logP [14] of 6.53.

Molecule `Cc1cc(C)c2c(c1)COP(=O)(OCC1C=CC(n3cc(C)c(=O)[nH]c3=O)O1)O2` (stereo not given) has a logD [17] of 1.18.

In the case of `CN(C)C(N)=S`, the logD [16] is reported as -0.43.

For `CCCCCNC(=O)CCC(NS(=O)(=O)c1ccccc1)C(=O)O` (stereo not given), the logP [2] was -0.16.

`CCCCOc1ccc(NC(=O)OCN2CCCCC2)cc1` showed a logD [6] of 3.04.

`CC(NCCC(c1ccccc1)c1ccccc1)c1ccccc1` (stereo not given) gave a logP [3] of 4.89.

`COP(=O)(NC(C)=O)SC` (stereo not given) gave a logP [9] of -0.46.

Molecule `CN1CCN(CCCN2c3ccccc3Sc3ccc(Cl)cc32)CC1` has a logP [3] of 4.79.

With `COC(N)=O` the logP [7] was -0.64.

With `COC1(NC(=O)CSc2nnc(C)s2)C(=O)N2C(C(=O)O)=C(COC(N)=O)CSC21` (stereo not given) the logP [12] was -2.16.

Molecule `Cc1cccc2sc3nncn3c12` has a logP [9] of 2.07.

Molecule `CCN(CC)c1nc(Cl)nc(Cl)n1` has a logP [4] of 2.17.

`Cc1cccc2c1ccc1ccccc12` gave a logP [8] of 5.08.

`Cc1ccc2c(c1)COP(=O)(OCC1C=CC(n3cc(C)c(=O)[nH]c3=O)O1)O2` (stereo not given) gave a logD [17] of 0.73.

For `Cc1cccc2c1OP(=O)(OCC1C=CC(n3cc(C)c(=O)[nH]c3=O)O1)OC2` (stereo not given), the logD [17] was 0.71.

`CC1=C(N)C(=O)c2c(COC(N)=O)c3n(c2C1=O)CCC3O` (stereo not given) showed a logD [15] of 0.64.

With `CCCOC(=O)NCCCN(C)C` the logP [9] was 2.43.

`OCCO` showed a logP [7] of -1.21.

Molecule `CCCCCCCCCCCCCC(=O)N[C@H]1C[C@H](O[C@H]2C[C@](O)(C(=O)CO)Cc3c(O)c4c(c(O)c32)C(=O)c2c(OC)cccc2C4=O)O[C@@H](C)[C@H]1O` has a logP [11] of 1.94.

For `O=C(CCN1CCCCC1)CN1C(=O)CC(c2ccc(Cl)cc2)C1=O` (stereo not given), the logP [13] was 2.23.

For `CCNC(=S)NCC`, the logD [16] was 0.57.

With `Cc1nc(NC(=O)C(C)(C)C)sc1-c1cc(C(=O)NCc2ccccc2)n(Cc2ccccc2)n1` the logP [10] was 4.82.

`Cc1c(Cl)ccc(Cc2ccc(Cl)cc2Cl)c1Cl` showed a logP [14] of 6.85.

In the case of `CCCCCSCC(=O)NC1(OC)C(=O)N2C(C(=O)O)=C(COC(N)=O)CSC21` (stereo not given), the logP [12] is reported as -1.31.

With `C=CCn1nc(-c2sc(NC(=O)C(C)(C)C)nc2C)cc1C(=O)Nc1ccc(OC)cc1` the logP [10] was 4.55.

`CCSCCCCCCCCCCCC(=O)NC1CC(OC2CC(O)(C(=O)CO)Cc3c(O)c4c(c(O)c32)C(=O)c2c(OC)cccc2C4=O)OC(C)C1O` (stereo not given) gave a logP [11] of 2.

Work on `O=C(CCN1CCCCC1)CN1C(=O)C2CC=CCC2C1=O` (stereo not given) yielded a logP [13] of 1.44.

`CC(O)CC(F)(F)F` (stereo not given) showed a logP [1] of 0.71.

With `CC(CCO)CC(F)(F)F` (stereo not given) the logP [1] was 1.61.
